Where a name gives a salt, the structure may show the parent alone.
Assays:
Assay type in all cases: physicochemical
[1] = In vitro release of doxorubicin from SAIB/NMP formulations; settings: for Release (%) of DOX: 24 h, PBS 7.4, 37° C., 6% DOX loading
Description: Formulations were prepared using doxorubicin-HCl (DOX-HCl) and doxorubicin docusate (DOX-DSS) complex powders. Formulations were prepared by mixing DOX-HCL and DOX-DSS with SAIB solution in NMP to achieve 6% DOX loading as shown in Table 6.
An aliquot of the suspension was used for studying the in vitro release of DOX from different formulations. About 0.1 mL of each DOX formulation was injected into 3 mL of releasing buffer (PBS 7.4, containing 0.1% sodium azide) in a 4 mL glass vial. The vials were incubated at 37° C. and sampled at various time points. At each time point, 2 mL of release medium was removed and replaced with 2 mL of fresh release medium. The collected samples were analyzed for peptide concentration and integrity by HPLC using an YMC-Pack ODS-120A column. Triplicate samples were used for each formulation.

[2] = Appearance and phase separation of octreotide formulations in SAIB/NMP; settings: for appearance when combined with SAIB/NMP solution: octreotide about 6%
Description: A solution of sucrose acetate isobutyrate (SAIB) in N-methyl-2-pyrrolidone (NMP) at a concentration of 80% by weight was prepared by combining 2 g NMP with 8 g SAIB followed by gentle mixing. A clear, low viscosity solution was obtained. Then 60 mg octreotide acetate was dissolved in 100 μL NMP which was combined with 900 μL SAIB solution in NMP (80%) and mixed well to obtain a formulation containing about 6% of octreotide acetate.
Since both SAIB and octreotide acetate were quite soluble in NMP, a clear solution was expected after two solutions in the same solvent (NMP) were mixed. […] Therefore, such a formulation is not suitable for preparation of a stable, single-phase formulation of octreotide in SAIB/NMP solution.
(§1) Octreotide acetate (OCT-Ac), octreotide dodecyl sulfate (OCT-SDS) and octreotide docusate (OCT-DSS) complex powders were dissolved in NMP. Then the solutions containing various salt forms of octreotide were thoroughly mixed with SAIB solution in NMP (90% w/w).
Chunky solid precipitates were observed and an inhomogeneous formulation was obtained as observed in Example 1. This inhomogeneous formulation will block needles and is not suitable for injection. […] This formulation can be prepared immediately prior to administration or suitable for storage for a period of time by adjusting the formulation parameters. […] This formulation may be packaged and stored for a long period of time at room temperature.
Octreotide acetate (OCT-Ac) and octreotide dodecyl sulfate (OCT-SDS) complex powders were dissolved in NMP. Then the solutions containing various salt forms of octreotide were thoroughly mixed with SAIB solution in NMP (90% w/w).
A chunky aggregate was formed at the bottom of the formulation (FIG. 1(a)). This inhomogeneous formulation is clearly not suitable for injection to form a consistent depot system in situ for controlled release.

[3] = In vitro release of leuprolide from SAIB/NMP formulations; settings: after two weeks; PBS 7.4, 37° C.; SAIB/NMP formulation, about 6% leuprolide
Description: (§2) In another embodiment, the release rate of the compositions of the present invention was determined in vitro. About 0.1 mL of each formulation was injected into 3 mL of releasing buffer (PBS 7.4, containing 0.1% sodium azide) in a 4 mL glass vial. The vials were incubated at 37° C. and sampled at various time points. At each time point, 2 mL of release medium was removed and replaced with 2 mL of fresh release medium. The collected samples were analyzed for bioactive substance concentration and integrity by HPLC using an YMC-Pack ODS-120A column or equivalent. Triplicate samples were used for each formulation.
Formulations were prepared by mixing leuprolide acetate (LA-Ac), leuprolide dodecyl sulfate (LA-SDS), leuprolide docusate (LA-DSS) and leuprolide oleate (LA-OL) complex powders with SAIB solution in NMP (90% w/w).
An aliquot of the suspension was used for the in vitro release. About 0.1 mL of each leuprolide formulation was injected into 3 mL of releasing buffer (PBS 7.4, containing 0.1% sodium azide) in a 4 mL glass vial. The vials were incubated at 37° C. and sampled at various time points. At each time point, 2 mL of release medium was removed and replaced with 2 mL of fresh release medium. The collected samples were analyzed for peptide concentration and integrity by HPLC using an YMC-Pack ODS-120A column. Triplicate samples were used for each formulation.

[4] = Phase behaviour of lysozyme SAIB/NMP pellets in PBS buffer; settings: about 6% with 90% SAIB in NMP, shaker at 37° C.
Description: Formulations containing about 6% LYZ and LYZ-DSS (85.2% LYZ) with 90% SAIB in NMP were prepared. Injections of roughly 100 mg were made into vials with 3 mL PBS buffer and 0.1% NaN3. Gel-like pellets were formed at room temperature and put on a shaker at 37° C. […] An improved depot system was achieved the complexation of lysozyme with amphiphilic molecule DSS.

[5] = Stability of the octreotide in formulations at room temperature over time (HPLC); settings: SAIB/NMP formulation
From the text: Those peaks were not observed from the formulation at the beginning, indicating the generation of impurities or degradation products of the octreotide. The intensity of these peaks increased with the increase of time, while the peak for octreotide decreases over time. […] Therefore, this type of formulation must be modified to be suitable for controlled release delivery of various bioactive substances.
as §1
After two hours, about 4% of the octreotide was degraded or reacted.

[6] = In vitro release of octreotide from SAIB/NMP formulations; settings: PBS 7.4, 37° C., SAIB/NMP formulation, about 6% octreotide
Description: as §2
An aliquot of the suspension was used for the in vitro release. About 0.1 mL of each formulation containing octreotide was injected into 3 mL of releasing buffer (PBS 7.4, containing 0.1% sodium azide) in a 4 mL glass vial. The vials were incubated at 37° C. and sampled at various time points. At each time point, 2 mL of release medium was removed and replaced with 2 mL of fresh release medium. The collected samples were analyzed for peptide concentration and integrity by HPLC using an YMC-Pack ODS-120A column. Triplicate samples were used for each formulation.

[7] = In vitro release of pramipexole from SAIB formulations; settings: PBS buffer, 37° C., about 6% PPL in 90% SAIB in NMP
Description: Formulations containing about 6% PPL of different salt forms were prepared by mixing PPL with 90% SAIB solutions in NMP. Injections of roughly 100 mg were made into vials with 3 mL PBS buffer and 0.1% NaN3. Gel-like pellets formed and the vials were placed on a shaker at 37° C. The release of PPL was measured by removing 2 mL of the release media at specified times and replacing it with 2 mL of fresh buffer. The concentration in the release media was determined by reverse phase HPLC.

[8] = Integrity of GEN-DSS SAIB/NMP pellets in PBS buffer; settings: about 6% and 2% GEN-DSS with 90% SAIB in NMP, incubated at 37° C.
Description: Formulations containing about 6% and 2% GEN-DSS with 90% SAIB in NMP were prepared. Injections of roughly 100 mg were made into vials with 3 mL PBS buffer and 0.1% NaN3. Gel-like pellets were formed at room temperature.

COc1cccc2c1C(=O)c1c(O)c3c(c(O)c1C2=O)C[C@@](O)(C(=O)CO)C[C@@H]3O[C@H]1C[C@H](N)[C@H](O)[C@H](C)O1 [DOX-HCl, doxorubicin hydrochloride]
Release (%) of DOX [1]: More than 70%

octreotide dodecyl sulfate [OCT-SDS]
appearance when combined with SAIB/NMP solution ([2]; Example 7, SAIB about 70%): homogeneous suspension
phase separation after 24 hours ([2]; Example 8, SAIB about 80%, room temperature, 24 h): no significant phase separation
appearance when combined with SAIB/NMP solution ([2]; Example 8, SAIB about 80%): homogeneous milky suspension

CCNC(=O)[C@@H]1CCCN1C(=O)[C@H](CCCNC(=N)N)NC(=O)[C@H](CC(C)C)NC(=O)[C@@H](CC(C)C)NC(=O)[C@H](Cc1ccc(O)cc1)NC(=O)[C@H](CO)NC(=O)[C@H](Cc1c[nH]c2ccccc12)NC(=O)[C@H](Cc1c[nH]cn1)NC(=O)[C@@H]1CCC(=O)N1 [LA-Ac, leuprolide acetate]
leuprolide released [3]: almost all

octreotide docusate [OCT-DSS]
appearance when combined with SAIB/NMP solution ([2]; Example 7, SAIB about 70%): transparent uniform solution

Lysozyme Docusate [LYZ-DSS]
phase behaviour of pellets [4]: remained one phase

C[C@@H](O)[C@@H]1NC(=O)[C@H](CCCCN)NC(=O)[C@@H](Cc2c[nH]c3ccccc23)NC(=O)[C@H](Cc2ccccc2)NC(=O)[C@@H](NC(=O)[C@H](N)Cc2ccccc2)CSSC[C@@H](C(=O)N[C@H](CO)[C@@H](C)O)NC1=O [OCT-Ac, octreotide acetate]
appearance on mixing with SAIB solution in NMP ([2]; Example 1, about 6% octreotide acetate, SAIB solution in NMP (80%)): opaque suspension with chunky aggregates
phase separation on standing ([2]; Example 1, room temperature overnight): two distinguished phases
phase separation on standing ([2]; Example 1, room temperature, within a few hours): appearance of phase separation was observed
appearance when combined with SAIB/NMP solution ([2]; Example 7, SAIB about 70%): phase separation occurred immediately
appearance when combined with SAIB/NMP solution ([2]; Example 8, SAIB about 80%): phase separation occurred even faster
octreotide degraded ([5]; after 5 days): More than half
octreotide degraded or reacted ([5]; after two hours): about 4%
octreotide released ([6]; after two weeks): more than 90%
octreotide released ([6]; within 24 hours): More than 60%

lysozyme [LYZ]
phase behaviour of pellets [4]: phase separated after one day

leuprolide oleate [LA-OL]
leuprolide released [3]: almost all

CCCN[C@H]1CCc2nc(N)sc2C1.Cl [PPL-HCl]
pramipexole released ([7]; after one week): about 90%
pramipexole released ([7]; within 24 hours): More than 60%

CCCCC(CC)COC(=O)CC(C(=O)OCC(CC)CCCC)S(=O)(=O)O.COc1cccc2c1C(=O)c1c(O)c3c(c(O)c1C2=O)CC(O)(C(=O)CO)CC3OC1CC(N)C(O)C(C)O1 (centres unmarked) [DOX-DSS, doxorubicin docusate]
Release (%) of DOX [1]: Less than 8%
reduction of the initial burst release of DOX by complexation with DSS ([1]; versus DOX-HCl formulation): ~10 fold

Gentamycin Docusate [GEN-DSS]
behaviour of gel-like pellets [8]: began to disintegrate and fall apart within a few hours
